Test results as given in patent publication US5780509A, “Compound bearing two, 2,6-diiodophenol-4-YL groups and diagnostic drug for iodine allergy” (Muromachi Kagaku Kogyo Kaisha, Ltd., priority 1994, dated 1998).
Non-standard residues stand in square brackets, D forms with d. Residues, ends and D or L forms follow the SMILES beside them. Tyr(3,5-I2) = N[C@@H](Cc1cc(I)c(O)c(I)c1)C(=O)O

Legend:
[1] = test system: guinea-pigs immunized with iodine (iodine-sensitized) and non-sensitized guinea-pigs; assay: Active cutaneous anaphylaxis (ACA) reaction, elicitation antigenicity; type: in vivo, guinea-pig (male SPF, Hartley strain); design: key to Mean diameter of blue spots, non-sensitized guinea-pig / Mean diameter of blue spots, iodine-sensitized guinea pig (second value) / Mean diameter of blue spots, iodine-sensitized guinea pig (first value): --: Negative response; **: Weak response; details: for Mean diameter of blue spots, iodine-sensitized guinea pig (first value) / Mean diameter of blue spots, iodine-sensitized guinea pig (second value) / Mean diameter of blue spots, non-sensitized guinea-pig: 30 min
Text: The elicitation antigenicity of iodinated tyrosine derivatives was studied in the bases of the active cutaneous anaphylaxis (ACA) reaction in guinea-pigs immunized with iodine.
Animals: Male SPF guinea-pigs of Hartley strain, weighing 300~350 g were purchased from Charles River Japan Co., Ltd. These were immunized after having been acclimated for one week.
Sensitization: A solution of iodine potassium iodide (Wako Junyaku, special grade reagent) and complete Freund's adjuvant (Difco) were mixed in equal amounts to form an emulsion. This was administered subcutaneously into the back of guinea-pigs at a dose of 2 mg of iodine per animal 3 times at intervals of 2 weeks. Active cutaneous anaphylaxis (ACA) was elicited 2 weeks after the last sensitization injection.
ACA Induction: 2% Evans blue physiological solution (0.5 ml/animal) was administered intravenously to guinea-pigs, and immediately thereafter 0.1 ml of an elicitation antigen was administered intradermally into the back, and after 30 min. the existence of pigment leakage at the intradermally injected sites was observed.
Elicitation antigen: Iodinated dityrosine, iodinated trityrosine, iodinated dityrosylphenylalanine were administered intracutaneously at 0.1 ml/site. Guinea-pig serum albumin (fraction V: Sigma) was iodinated and used as a positive control. Corresponding noniodinated ones were also administered intradermally as negative controls.
Iodination reaction: To a 50 mM boric acid buffer solution (pH 9.5) of 10 mg/ml of dityrosine, trityrosine, or dityrosylphenylalanine (all produced by Sigma Co., Ltd.) or guinea-pig serum albumin (abbreviated hereafter as GSA), a 0.5M solution of iodine was added at a ratio of 10:1, and these were reacted at 37 C. overnight. The excess iodine in the reaction mixture was reduced by adding sodium thiosulfate (Nakarai Chemical Co., Ltd.). For purification of the iodinated tyrosine derivatives, the reaction mixture was extracted with ethyl acetate and dried with magnesium sulfate, and hexane was added to obtain crystals. For purification of the iodinated GSA, the reaction mixture was purified by passing it through a Sephadex G25 column.

[2] = test system: guinea-pigs; assay: Active systemic anaphylaxis (ASA) reaction, sensitization antigenicity; type: in vivo, guinea-pig
Text: (§1) Sensitization antigenicity of iodinated tyrosine derivative was studied.
(§2) Trityrosine was selected as the tyrosine derivative, and this was iodinated to obtain iodinated trityrosine. Guinea-pigs were sensitized with iodinated trityrosine. As a positive control, employed was iodinated guinea-pig serum albumin (GSA). Guinea-pigs of the control group were sensitized with iodinated GSA. Sensitization was examined by active systemic anaphylaxis (ASA) reaction and passive cutaneous anaphylaxis (PCA) reaction.
(§3) Sensitization: Each of iodinated trityrosine and iodinated GSA was emulsified with complete Freund's adjuvant, and injected subcutaneously to the back of animals at a dose of 10 mg/animal (2.5 mg, respectively, at 4 sites), 3 times at intervals of 2 weeks.
ASA reaction: Iodinated GSA (1 mg/animal) was injected intravenously to the animals one week after the last sensitization injection, by which ASA reaction was elicited. The animals which indicated symptoms of anaphylactic shock were judged as being positive.

[3] = test system: guinea-pigs; assay: Passive cutaneous anaphylaxis (PCA) reaction, sensitization antigenicity; type: in vivo, guinea-pig
Text: as §1, §2, §3
PCA reaction: The blood was taken from each animal, and the serum was separated one week after the last sensitization injection. The serum was diluted fivefold with physiological saline, and injected intradermally to normal guinea-pigs at a dose of 0.1 ml/site. PCA reaction was provoked by intravenous injection of iodinated GSA (1 mg/animal) and Evans blue solution to the recipient animals 4 hours after the intradermal serum injection. PCA reaction was judged as being positive when the diameter of blue spot at the site of intradermal injection was 5 mm or larger.

[4] = test system: anti-iodine antibody; assay: ELISA inhibition potency (OD50) on anti-iodine antibody; type: binding, guinea-pig; details: serial twofold dilution, equal volume of 50-fold diluted anti-iodine antiserum; read-out: Inhibitory activity (OD50): concentration which decreased optical density of ELISA to a half of the control
Description: Guinea-pigs were immunized with iodine by injecting subcutaneously 1 mg of iodine containing potassium iodide solution treated with complete Freund's adjuvant seven times at intervals of 2 weeks, and anti-iodine antiserum was obtained from these animals. Antibody titers of the sera were determined by enzyme linked immunosorbent assay (ELISA) using 96 well microplate coated with iodinated guinea pig serum albumin (I-GSA) ELISA inhibition activities of the following compounds were studied. The compounds used were potassium iodide, tyrosine and its derivatives such as L-tyrosine, monoiodo-L-tyrosine, diiodotyrosine, hexaiodo-L-trityrosine, L-hexatyrosine and 12 iodo-L-hexatyrosine, and iodinated X-ray contrast media such as amidotrizoic acid, iodamide, ioxaglic acid, iohexol, iopamidol and iomeprol.
ELISA inhibition study was performed as follows. Antibody concentration of anti-iodine antiserum gave the maximum optical density in ELISA till one hundredfold serum dilution. Accordingly, seven steps of twofold serial dilution of anti-iodine antiserum, starting from 50-fold serum dilution, were made with physiological saline as a diluent. To each of the serially diluted sera, were added equal volume of solution containing each of the test compounds described above. After overnight incubation at 4 C, antibody activity was determined by ELISA. Phosphate buffered physiological saline (PBS) was used as a control. ELISA inhibitory activities of the test compounds were determined at the serum dilution which gave about 50% of the maximum optical density (OD415nm =2.6) of ELISA of control at serum dilution of one hundredfold. The inhibitory activity was calculated by the following calculation formula.
In the next, ELISA inhibition study was undertaken to determine the potency of ELISA inhibitory activity of active compounds. […] The inhibitory activity was expressed as the concentration which decreased optical density of ELISA to a half (OD50) of the control.

SMILES: N[C@@H](Cc1cc(I)c(O)c(I)c1)C(=O)N[C@@H](Cc1cc(I)c(O)c(I)c1)C(=O)N[C@@H](Cc1cc(I)c(O)c(I)c1)C(=O)O [Iodinated trityrosine, hexaiodo-L-trityrosine] (H-[Tyr(3,5-I2)]-[Tyr(3,5-I2)]-[Tyr(3,5-I2)]-OH)
- Mean diameter of blue spots, iodine-sensitized guinea pig (first value) ([1]; 1 μg/site intradermal): 6.0 mm
- Mean diameter of blue spots, iodine-sensitized guinea pig (second value) ([1]; 1 μg/site intradermal): --
- Mean diameter of blue spots, non-sensitized guinea-pig ([1]; 1 μg/site intradermal): --
- Mean diameter of blue spots, iodine-sensitized guinea pig (first value) ([1]; 10 μg/site intradermal): 8.5 mm
- Mean diameter of blue spots, iodine-sensitized guinea pig (second value) ([1]; 10 μg/site intradermal): 4.0 mm
- Mean diameter of blue spots, non-sensitized guinea-pig ([1]; 10 μg/site intradermal): --
- Mean diameter of blue spots, iodine-sensitized guinea pig (first value) ([1]; 100 μg/site intradermal): 11.0 mm
- Mean diameter of blue spots, iodine-sensitized guinea pig (second value) ([1]; 100 μg/site intradermal): 6.0 mm
- Mean diameter of blue spots, non-sensitized guinea-pig ([1]; 100 μg/site intradermal): --
- ACA reaction (in words) ([1]; intradermal injection, guinea-pigs sensitized with iodine): ACA reaction was elicited
- ASA reaction: number of positive animal/number of sensitized animal ([2]; sensitized 10 mg/animal s.c. 3 times, elicited with iodinated GSA 1 mg/animal i.v.): 0/5
- ASA reaction (in words) ([2]; sensitized group): negative in all animals
- PCA reaction (in words) ([3]; sensitized group): negative in all animals
- Anti-iodine antibody production / sensitization antigenicity (in words) ([3]; sensitized guinea-pigs, from ASA and PCA reactions): no anti-iodine antibody was produced
- PCA reaction: number of positive animal/number of sensitized animal ([3]; serum diluted fivefold, 0.1 ml/site, iodinated GSA 1 mg/animal i.v., positive = blue spot 5 mm or larger): 0/5
- IC50 [4]: 125 µM
